Source: patent EP1324760B1 (Board of Regents of the University of Nebraska, priority 2000, dated 2002)
Converted amounts (≈) assume the structure as drawn. Read-outs that look alike come from different tables or passages of the source.

Tests used:
partition coefficient = assay type: physicochemical
[1] = aqueous solubility (concentration at saturation); assay type: physicochemical; settings: water, read-out: Conc. at Saturation

logP (partition coefficient) | solubility [1] | flux over one hour (MDCK monolayers; MDCK) | logP (partition coefficient; studies in the laboratory) | flux over one hour (MDCK monolayers; MDCK monolayers, 60-minute period, share of the amount added that crossed to the other side) | Compound
-1.13 | 205.9 ± 1.5 mg/mL (≈ 1290 mM) | approximately 20% |  |  | CCOC(=O)CN(C)C(=N)N [Creatine Ethyl Ester, creatine ethyl ester]
 |  |  | -1.82 | approximately 10% | CN(CC(=O)O)C(=N)N.O [creatine monohydrate, reference compound]
-0.975 | 89.26 ± 0.8 mg/mL (≈ 403 mM) |  |  |  | CN(CC(=O)OCc1ccccc1)C(=N)N [Creatine Benzyl Ester, creatine benzyl ester]
